{
  "source": "ChEMBL document CHEMBL5506035",
  "about": "“Discovery of Glutamate Carboxypeptidase III Ligands to Compete the Uptake of [177Lu]Lu-PSMA-617 in Healthy Organs” (J Med Chem, 2024)",
  "key": {"[1]": {"assay": "Binding affinity to IL-9 receptor (unknown origin) assessed as dissociation constant by fluorescence polarization assay", "parameters": "species or system Homo sapiens"}, "[2]": {"target": "T1, Glutamate carboxypeptidase 2 (Homo sapiens, UniProt Q04609)", "assay": "Binding affinity to human recombinant PSMA assessed as dissociation constant by fluorescence polarization assay"}, "[3]": {"target": "Urokinase-type plasminogen activator (Homo sapiens, UniProt P00749)", "assay": "Binding affinity to Urokinase (unknown origin) assessed as dissociation constant by fluorescence polarization assay"}, "[4]": {"target": "T2, Prolyl endopeptidase FAP (Homo sapiens, UniProt Q12884)", "T2 sequence (Q12884 whole entry)": "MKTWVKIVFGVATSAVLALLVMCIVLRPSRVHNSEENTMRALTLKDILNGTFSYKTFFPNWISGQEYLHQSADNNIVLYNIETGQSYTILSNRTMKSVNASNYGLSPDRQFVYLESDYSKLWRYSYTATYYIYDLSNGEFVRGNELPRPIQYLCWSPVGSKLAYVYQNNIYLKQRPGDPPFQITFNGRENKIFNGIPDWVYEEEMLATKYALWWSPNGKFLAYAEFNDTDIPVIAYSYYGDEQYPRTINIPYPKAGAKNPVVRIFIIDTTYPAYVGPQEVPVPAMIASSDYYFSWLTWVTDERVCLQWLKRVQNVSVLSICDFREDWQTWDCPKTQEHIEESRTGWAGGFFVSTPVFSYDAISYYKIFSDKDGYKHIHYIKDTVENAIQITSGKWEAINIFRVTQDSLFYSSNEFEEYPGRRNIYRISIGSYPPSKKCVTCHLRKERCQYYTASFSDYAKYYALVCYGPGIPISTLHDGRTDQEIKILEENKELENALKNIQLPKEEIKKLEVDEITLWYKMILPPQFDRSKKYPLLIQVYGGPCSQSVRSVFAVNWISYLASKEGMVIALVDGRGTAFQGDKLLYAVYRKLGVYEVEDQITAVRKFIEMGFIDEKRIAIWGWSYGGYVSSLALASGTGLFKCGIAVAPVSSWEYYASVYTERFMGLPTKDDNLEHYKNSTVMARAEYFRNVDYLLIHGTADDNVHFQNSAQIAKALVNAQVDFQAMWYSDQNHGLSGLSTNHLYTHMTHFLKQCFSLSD", "assay": "Binding affinity to human FAP assessed as dissociation constant by fluorescence polarization assay"}, "[5]": {"target": "T3, Prolyl endopeptidase FAP (Mus musculus, UniProt P97321)", "T3 sequence (P97321 whole entry)": "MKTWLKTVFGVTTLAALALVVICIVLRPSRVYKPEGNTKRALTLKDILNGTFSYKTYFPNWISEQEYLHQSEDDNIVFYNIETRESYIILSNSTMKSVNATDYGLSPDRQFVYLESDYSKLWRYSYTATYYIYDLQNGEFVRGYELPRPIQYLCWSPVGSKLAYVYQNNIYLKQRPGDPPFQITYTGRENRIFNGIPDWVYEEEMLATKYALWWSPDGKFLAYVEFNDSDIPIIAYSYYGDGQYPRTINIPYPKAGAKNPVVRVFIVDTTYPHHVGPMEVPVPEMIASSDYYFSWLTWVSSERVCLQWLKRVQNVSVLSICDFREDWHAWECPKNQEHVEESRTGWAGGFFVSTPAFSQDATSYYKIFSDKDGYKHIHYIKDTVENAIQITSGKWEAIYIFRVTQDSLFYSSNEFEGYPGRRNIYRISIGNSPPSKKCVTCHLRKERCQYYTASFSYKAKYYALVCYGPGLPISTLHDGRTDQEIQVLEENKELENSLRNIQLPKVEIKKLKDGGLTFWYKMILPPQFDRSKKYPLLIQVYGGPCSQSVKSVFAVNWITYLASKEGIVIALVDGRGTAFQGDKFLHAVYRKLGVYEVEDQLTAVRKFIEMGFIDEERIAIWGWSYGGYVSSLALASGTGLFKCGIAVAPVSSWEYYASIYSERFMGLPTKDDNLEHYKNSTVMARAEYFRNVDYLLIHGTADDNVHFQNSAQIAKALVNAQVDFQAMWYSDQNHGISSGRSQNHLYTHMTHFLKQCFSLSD", "assay": "Binding affinity to mouse FAP assessed as dissociation constant by fluorescence polarization assay"}, "[6]": {"target": "Stromelysin-1 (Homo sapiens) (UniProt P08254)", "sequence (P08254 100-477 limits assumed)": "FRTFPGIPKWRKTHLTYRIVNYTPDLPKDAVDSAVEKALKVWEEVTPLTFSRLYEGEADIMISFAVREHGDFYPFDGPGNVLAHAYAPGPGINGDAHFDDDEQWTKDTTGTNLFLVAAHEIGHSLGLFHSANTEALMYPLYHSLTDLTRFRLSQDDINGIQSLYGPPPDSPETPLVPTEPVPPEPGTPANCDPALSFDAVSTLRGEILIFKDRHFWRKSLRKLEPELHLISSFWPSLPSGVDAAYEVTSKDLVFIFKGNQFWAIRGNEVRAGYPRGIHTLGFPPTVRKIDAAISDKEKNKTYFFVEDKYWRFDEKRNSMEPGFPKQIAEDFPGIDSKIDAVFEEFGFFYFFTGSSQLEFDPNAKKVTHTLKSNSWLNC", "assay": "Binding affinity to MMP3 (unknown origin) by fluorescence polarization assay"}, "[7]": {"organism": "Homo sapiens", "assay": "Ratio of Kd for binding affinity to human recombinant GCPIII assessed as dissociation constant by fluorescence polarization assay to Kd for binding affinity to human recombinant PSMA assessed as dissociation constant by fluorescence polarization assay"}, "[8]": {"target": "Interleukin-15 (Homo sapiens, UniProt P40933)", "assay": "Binding affinity to IL-15 (unknown origin) assessed as dissociation constant by fluorescence polarization assay"}, "[9]": {"target": "Albumin (Homo sapiens, UniProt P02768)", "sequence (P02768 whole entry)": "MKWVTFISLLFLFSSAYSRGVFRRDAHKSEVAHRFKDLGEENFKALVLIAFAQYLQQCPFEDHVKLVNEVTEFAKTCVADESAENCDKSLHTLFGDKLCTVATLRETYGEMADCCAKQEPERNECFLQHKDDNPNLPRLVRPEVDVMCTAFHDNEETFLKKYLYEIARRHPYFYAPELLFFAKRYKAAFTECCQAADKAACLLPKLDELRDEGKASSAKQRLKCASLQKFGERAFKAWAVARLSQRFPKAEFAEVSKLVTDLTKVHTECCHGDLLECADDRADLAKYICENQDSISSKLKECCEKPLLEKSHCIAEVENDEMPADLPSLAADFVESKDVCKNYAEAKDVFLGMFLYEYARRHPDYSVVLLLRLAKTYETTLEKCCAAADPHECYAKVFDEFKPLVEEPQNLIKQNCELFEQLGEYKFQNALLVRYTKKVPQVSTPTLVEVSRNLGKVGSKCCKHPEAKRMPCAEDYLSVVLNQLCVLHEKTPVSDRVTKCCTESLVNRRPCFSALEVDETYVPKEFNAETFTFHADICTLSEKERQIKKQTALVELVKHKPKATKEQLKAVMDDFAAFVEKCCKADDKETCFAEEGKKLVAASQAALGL", "assay": "Binding affinity to human serum albumin by fluorescence polarization assay"}, "[10]": {"target": "T1, Glutamate carboxypeptidase 2", "assay": "Displacement of [177Lu]LU-PSMA-617 from PSMA in human salivary gland assessed as residual activity at 10 uM incubated for 1 hr by autoradiography analysis relative to control", "type": "tissue-based"}, "[11]": {"target": "N-acetylated-alpha-linked acidic dipeptidase 2 (Homo sapiens, UniProt Q9Y3Q0)", "sequence (Q9Y3Q0 whole entry)": "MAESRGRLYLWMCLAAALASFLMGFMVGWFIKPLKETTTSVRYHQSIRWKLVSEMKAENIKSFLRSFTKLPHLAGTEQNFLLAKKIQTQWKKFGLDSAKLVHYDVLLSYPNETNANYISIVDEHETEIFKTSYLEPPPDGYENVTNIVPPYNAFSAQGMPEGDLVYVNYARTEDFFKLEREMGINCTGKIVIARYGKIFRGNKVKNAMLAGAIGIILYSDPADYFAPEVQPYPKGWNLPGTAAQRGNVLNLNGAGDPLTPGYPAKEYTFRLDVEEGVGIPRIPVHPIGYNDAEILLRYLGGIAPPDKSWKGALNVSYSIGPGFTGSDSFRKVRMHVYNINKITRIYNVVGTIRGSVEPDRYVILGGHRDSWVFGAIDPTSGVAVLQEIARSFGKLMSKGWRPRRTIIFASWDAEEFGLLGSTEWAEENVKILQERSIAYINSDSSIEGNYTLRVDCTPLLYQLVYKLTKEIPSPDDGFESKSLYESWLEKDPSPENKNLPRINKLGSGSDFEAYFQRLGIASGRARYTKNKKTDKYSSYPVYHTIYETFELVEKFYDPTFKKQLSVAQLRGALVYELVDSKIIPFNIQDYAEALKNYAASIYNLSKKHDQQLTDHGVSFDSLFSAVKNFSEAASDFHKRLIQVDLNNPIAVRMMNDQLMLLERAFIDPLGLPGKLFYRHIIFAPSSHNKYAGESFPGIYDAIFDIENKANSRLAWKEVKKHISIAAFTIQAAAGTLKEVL", "assay": "Binding affinity to human recombinant GCPIII assessed as dissociation constant by fluorescence polarization assay"}, "[12]": {"target": "Albumin (Oryctolagus cuniculus, UniProt P49065)", "sequence (P49065 whole entry)": "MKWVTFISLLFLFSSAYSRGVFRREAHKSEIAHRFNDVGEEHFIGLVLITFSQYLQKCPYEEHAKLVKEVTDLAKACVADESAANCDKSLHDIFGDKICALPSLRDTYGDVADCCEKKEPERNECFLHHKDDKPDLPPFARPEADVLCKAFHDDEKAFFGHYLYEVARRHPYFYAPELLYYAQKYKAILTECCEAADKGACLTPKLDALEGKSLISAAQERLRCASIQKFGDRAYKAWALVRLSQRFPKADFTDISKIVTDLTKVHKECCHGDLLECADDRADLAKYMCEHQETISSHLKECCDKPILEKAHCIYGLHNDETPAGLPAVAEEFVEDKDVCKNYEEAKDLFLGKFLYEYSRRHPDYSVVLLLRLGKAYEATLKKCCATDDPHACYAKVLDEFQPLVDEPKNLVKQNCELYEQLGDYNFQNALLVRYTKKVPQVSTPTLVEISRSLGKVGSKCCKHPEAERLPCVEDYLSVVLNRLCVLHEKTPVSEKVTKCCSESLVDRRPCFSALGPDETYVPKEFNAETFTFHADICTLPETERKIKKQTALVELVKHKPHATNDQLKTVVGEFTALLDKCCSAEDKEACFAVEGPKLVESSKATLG", "assay": "Binding affinity to rabbit serum albumin by fluorescence polarization assay"}, "[13]": {"target": "Natural cytotoxicity triggering receptor 1 (Homo sapiens, UniProt O76036)", "sequence (O76036 whole entry)": "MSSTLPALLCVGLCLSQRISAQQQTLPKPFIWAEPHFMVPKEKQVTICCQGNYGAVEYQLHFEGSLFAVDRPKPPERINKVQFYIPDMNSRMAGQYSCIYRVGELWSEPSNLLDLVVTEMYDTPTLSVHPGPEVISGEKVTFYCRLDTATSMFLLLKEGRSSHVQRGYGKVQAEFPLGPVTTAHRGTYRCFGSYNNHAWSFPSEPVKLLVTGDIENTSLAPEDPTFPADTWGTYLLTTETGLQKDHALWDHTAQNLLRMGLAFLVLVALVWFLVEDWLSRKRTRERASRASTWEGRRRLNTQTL", "assay": "Binding affinity to NKp46 (unknown origin) assessed as dissociation constant by fluorescence polarization assay"}, "[14]": {"target": "Albumin (Bos taurus, UniProt P02769)", "sequence (P02769 whole entry)": "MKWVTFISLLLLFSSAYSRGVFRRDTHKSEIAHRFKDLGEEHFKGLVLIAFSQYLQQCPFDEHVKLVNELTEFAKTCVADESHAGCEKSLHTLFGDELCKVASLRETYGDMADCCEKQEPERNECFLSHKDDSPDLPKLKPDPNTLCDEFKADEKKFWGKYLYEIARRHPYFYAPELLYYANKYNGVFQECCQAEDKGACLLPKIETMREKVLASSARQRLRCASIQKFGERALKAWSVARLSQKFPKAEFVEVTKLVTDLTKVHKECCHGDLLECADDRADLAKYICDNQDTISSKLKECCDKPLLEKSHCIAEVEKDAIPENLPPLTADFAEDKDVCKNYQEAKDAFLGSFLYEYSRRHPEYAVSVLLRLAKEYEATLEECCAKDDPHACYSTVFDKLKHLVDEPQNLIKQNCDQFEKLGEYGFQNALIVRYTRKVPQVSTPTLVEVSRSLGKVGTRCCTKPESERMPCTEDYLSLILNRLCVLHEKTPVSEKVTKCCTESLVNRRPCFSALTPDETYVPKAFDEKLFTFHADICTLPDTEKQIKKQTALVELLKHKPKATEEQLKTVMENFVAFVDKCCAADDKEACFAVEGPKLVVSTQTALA", "assay": "Binding affinity to bovine serum albumin by fluorescence polarization assay"}, "[15]": {"target": "Albumin (Rattus norvegicus, UniProt P02770)", "sequence (P02770 whole entry)": "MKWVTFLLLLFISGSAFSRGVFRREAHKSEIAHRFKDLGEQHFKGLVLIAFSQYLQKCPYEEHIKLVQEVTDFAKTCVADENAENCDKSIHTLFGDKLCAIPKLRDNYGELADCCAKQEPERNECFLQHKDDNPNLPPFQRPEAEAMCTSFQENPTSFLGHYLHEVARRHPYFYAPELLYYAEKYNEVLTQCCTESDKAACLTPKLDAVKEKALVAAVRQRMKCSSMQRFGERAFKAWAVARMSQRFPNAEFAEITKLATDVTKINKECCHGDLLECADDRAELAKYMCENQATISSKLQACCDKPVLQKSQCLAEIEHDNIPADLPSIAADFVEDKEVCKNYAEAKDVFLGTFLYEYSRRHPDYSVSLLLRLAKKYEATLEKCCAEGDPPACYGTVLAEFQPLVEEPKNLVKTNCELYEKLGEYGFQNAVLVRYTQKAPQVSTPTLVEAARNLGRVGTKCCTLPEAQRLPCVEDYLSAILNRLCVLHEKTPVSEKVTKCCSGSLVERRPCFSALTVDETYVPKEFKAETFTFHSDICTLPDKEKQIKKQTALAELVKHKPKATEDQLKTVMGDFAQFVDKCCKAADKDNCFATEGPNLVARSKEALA", "assay": "Binding affinity to rat serum albumin by fluorescence polarization assay"}, "[16]": {"target": "Immunoglobulin heavy constant gamma 4 (Homo sapiens) (UniProt P01861)", "sequence (P01861 whole entry)": "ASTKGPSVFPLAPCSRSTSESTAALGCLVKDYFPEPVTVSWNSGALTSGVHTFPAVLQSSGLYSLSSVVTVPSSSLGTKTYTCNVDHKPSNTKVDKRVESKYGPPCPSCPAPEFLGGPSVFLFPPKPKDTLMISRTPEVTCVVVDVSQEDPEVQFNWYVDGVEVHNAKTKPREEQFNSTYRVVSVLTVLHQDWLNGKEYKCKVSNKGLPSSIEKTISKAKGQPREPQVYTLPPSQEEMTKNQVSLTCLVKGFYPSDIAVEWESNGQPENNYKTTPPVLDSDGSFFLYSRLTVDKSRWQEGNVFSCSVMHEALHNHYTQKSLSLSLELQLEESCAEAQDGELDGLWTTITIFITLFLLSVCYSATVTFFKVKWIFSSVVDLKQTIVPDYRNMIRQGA", "assay": "Binding affinity to IgG4 (unknown origin) by fluorescence polarization assay"}, "[17]": {"target": "Carbonic anhydrase 2 (Homo sapiens) (UniProt P00918)", "assay": "Binding affinity to Carbonic anhydrase II (unknown origin) by fluorescence polarization assay"}, "[18]": {"target": "Albumin (Macaca fascicularis, UniProt A2V9Z4)", "sequence (A2V9Z4 whole entry)": "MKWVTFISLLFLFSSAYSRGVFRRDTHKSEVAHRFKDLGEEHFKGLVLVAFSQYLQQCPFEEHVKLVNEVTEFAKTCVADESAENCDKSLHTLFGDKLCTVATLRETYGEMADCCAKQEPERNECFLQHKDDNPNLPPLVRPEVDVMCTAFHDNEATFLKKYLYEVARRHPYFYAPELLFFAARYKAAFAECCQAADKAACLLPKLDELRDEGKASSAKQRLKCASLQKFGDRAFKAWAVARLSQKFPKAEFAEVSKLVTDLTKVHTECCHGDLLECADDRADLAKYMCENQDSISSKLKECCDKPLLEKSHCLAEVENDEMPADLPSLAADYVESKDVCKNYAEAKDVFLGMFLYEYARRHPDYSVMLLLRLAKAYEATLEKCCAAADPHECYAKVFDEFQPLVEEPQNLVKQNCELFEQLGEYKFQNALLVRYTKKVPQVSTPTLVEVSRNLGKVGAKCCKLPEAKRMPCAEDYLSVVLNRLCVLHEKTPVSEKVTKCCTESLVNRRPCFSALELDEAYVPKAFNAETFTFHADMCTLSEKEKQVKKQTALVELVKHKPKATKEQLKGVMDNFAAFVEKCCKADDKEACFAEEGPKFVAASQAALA", "assay": "Binding affinity to cynomolgus serum albumin by fluorescence polarization assay", "settings": "cynomolgus monkey"}},
  "note": "Calls of active or inactive are those of the source. The rule behind the calls is not given here.",
  "data": [
    {"smiles": "O=C(N[C@@H]1C[C@@H](C(=O)N[C@@H](CCCCNC(=S)Nc2ccc3c(c2)C(=O)OC32c3ccc(O)cc3Oc3cc(O)ccc32)C(=O)O)N(C(=O)c2cnoc2C2CC2)C1)c1c[nH]nn1", "values": [
      {"measurement": "Kd", "setting": "[1]", "result": "> 7.5", "unit": "µM"},
      {"measurement": "Kd", "setting": "[2]", "result": "> 0.002", "unit": "µM"},
      {"measurement": "Kd", "setting": "[3]", "result": "> 9.5", "unit": "µM"},
      {"measurement": "Kd", "setting": "[4]", "result": "> 1.5", "unit": "µM"},
      {"measurement": "Kd", "setting": "[5]", "result": "> 0.7", "unit": "µM"},
      {"measurement": "Activity", "setting": "[6]", "result": "inactive"},
      {"measurement": "Ratio", "setting": "[7]", "result": 100},
      {"measurement": "Kd", "setting": "[8]", "result": "> 5", "unit": "µM"},
      {"measurement": "Activity", "setting": "[9]", "result": "Not Active"},
      {"measurement": "Activity", "setting": "[10]", "result": 39, "unit": "%"},
      {"measurement": "Kd", "setting": "[11]", "result": 0.014, "unit": "µM"},
      {"measurement": "Activity", "setting": "[12]", "result": "Not Active"},
      {"measurement": "Kd", "setting": "[13]", "result": "> 3.3", "unit": "µM"},
      {"measurement": "Kd", "setting": "[14]", "result": 4.5, "unit": "µM"},
      {"measurement": "Activity", "setting": "[15]", "result": "Not Active"},
      {"measurement": "Activity", "setting": "[16]", "result": "inactive"},
      {"measurement": "Activity", "setting": "[17]", "result": "inactive"},
      {"measurement": "Activity", "setting": "[18]", "result": "Not Active"}
    ]}
  ]
}
